From patent publication US20090036540A1, “Guanylhydrazones in Methods of Treatment or Diagnosis as Modulators of Signal Transduction” (Cytokine PharmaSciences, Inc., priority 2003, published 2009)

Test system: Peripheral Blood Mononuclear Cells
Test: PepChip kinome array: in vitro phosphorylation of peptide array by lysates of LPS-stimulated PBMCs
Assay type: cell-based, human
Details: PBMC lysate, 1.0 μM CNI-1493, 100 ng/ml LPS
Description: Peripheral Blood Mononuclear Cells (PBMCs) were isolated from peripheral blood from healthy volunteers using standard density-gradient centrifugation over Ficoll-Paque Plus (Amersham Pharmacia Biotech AB, Uppsala, Sweden) after washing in resuspension in IMDM supplemented with 10% FBS, penicillin, streptomycin and amphotericin (hereafter referred to as complete IMDM).
For kinome array samples, 10^7 PBMCs were suspended in 5 ml media (IMDM supplemented with 1.0% human serum). LPS stimulation consisted of a […] (37° C., 5% CO2) with 100 ng/ml LPS (E. coli, serotype 0111:B4). CNI treated PBMCs were maintained in media dosed with 1.0 μM CNI-1493 (Cytokine PharmaSciences, Inc.) 1 hour before and during incubation for LPS stimulation. Stimulations were terminated by an ice-cold PBS wash. PBMCs were lysed in 200 μl cell lysis buffer (20 mM Tris-HCl (pH 7.5), 150 mM NaCl, 1 mM Na2EDTA, 1 mM EGTA, 1% Triton, 2.5 mM sodium pyrophosphate, 1 mM MgCl2, 1 mM beta-glycerophosphate, 1 mM Na3VO4, 1 mM NaF, 1 μg/ml leupeptin, 1 μg/ml aprotinin, 1 mM PMSF) and the volume of the cell lysate were equalised with dH2O. The cell lysates were subsequently cleared on a 0.22 μm filter. PepChip incubation mix was produced by adding 10 μl of filter-cleared activation mix (50% glycerol, 50 μM ATP, 0.05% v/v Brij-35, 0.25 mg/ml BSA, ^33P-γ-ATP (1000 kBq)). Next, the PepChip mix is added onto the chip and the chip is kept at 37° C. in a humidified stove for 90 minutes. Subsequently, the PepChip was washed once with TBST, twice in 2M NaCl and twice in demineralised H2O and air-dry the PepChip slips. The experiments were performed three times in duplicate. The average inter-experimental variance in relative values was less than 5% for all spots.
The chips were exposed to a phosphoimager plate for 72 hours and the spots were analysed on AIDA analysing software. For graphical visualisation of the spots in FIG. 2 the data of four arrays was averaged to eliminate false positives.

LPS + CNI: peptide phosphorylation, Kinase PKA, Substrate P450 (Control 2412, LPS 19980): 265
Compound: C/C(=N\NC(=N)N)c1cc(NC(=O)CCCCCCCCC(=O)Nc2cc(/C(C)=N/NC(=N)N)cc(/C(C)=N/NC(=N)N)c2)cc(/C(C)=N/NC(=N)N)c1 [Semapimod]
LPS + CNI: peptide phosphorylation, Kinase p34cdc2, Substrate Vimentin (Control 192, LPS 214): 300 | LPS + CNI: peptide phosphorylation, Kinase CKII, Substrate Lamin B R (Control 214, LPS 1736): 250 | LPS + CNI: peptide phosphorylation, Kinase p34cdc2, Substrate c-Src (Control 230, LPS 248): 270 | LPS + CNI: peptide phosphorylation, Kinase CKII, Substrate TOPII (Control 231, LPS 900): 900 | LPS + CNI: peptide phosphorylation, Kinase CKII, Substrate Lamin D (Control 242, LPS 822): 320 | LPS + CNI: peptide phosphorylation, Kinase Auto, Substrate PKG (Control 246, LPS 8100): 320 | LPS + CNI: peptide phosphorylation, Kinase GRK, Substrate Tau (Control 248, LPS 230): 250 | LPS + CNI: peptide phosphorylation, Kinase JAK, Substrate STAT1a/b (Control 248, LPS 7704): 231 | LPS + CNI: peptide phosphorylation, Kinase Cdc2, Substrate CKII (Control 268, LPS 1728): 265 | LPS + CNI: peptide phosphorylation, Kinase CytoK Rec, Substrate FPS (Control 270, LPS 5512): 265 | LPS + CNI: peptide phosphorylation, Kinase CK II?, Substrate TOPII (Control 274, LPS 280): 300 | LPS + CNI: peptide phosphorylation, Kinase PKA, Substrate MBP (Control 280, LPS 1250): 265 | LPS + CNI: peptide phosphorylation, Kinase Scr-family?, Substrate PTP-2C (Control 287, LPS 5960): 250 | LPS + CNI: peptide phosphorylation, Kinase PKA, Substrate HSP27 (Control 288, LPS 1072): 298 | LPS + CNI: peptide phosphorylation, Kinase PKC, Substrate HSP27 (Control 291, LPS 280): 300 | LPS + CNI: peptide phosphorylation, Kinase PKA, Substrate v-Rel (Control 291, LPS 2574): 291 | LPS + CNI: peptide phosphorylation, Kinase GSK3, Substrate GS (Control 312, LPS 320): 250 | LPS + CNI: peptide phosphorylation, Kinase p34cdc2, Substrate CKII (Control 320, LPS 560): 291 | LPS + CNI: peptide phosphorylation, Kinase PKA, Substrate Tau (Control 340, LPS 340): 250 | LPS + CNI: peptide phosphorylation, Kinase PKA, Substrate c-Rel (Control 421, LPS 250): 261 | LPS + CNI: peptide phosphorylation, Kinase p34cdc2, Substrate AP-1 (Control 460, LPS 548): 274 | LPS + CNI: peptide phosphorylation, Kinase PKA, Substrate MBP (Control 536, LPS 822): 248 | LPS + CNI: peptide phosphorylation, Kinase CaM-II, Substrate MBP (Control 600, LPS 265): 680 | LPS + CNI: peptide phosphorylation, Kinase PKA, Substrate GS (Control 795, LPS 7980): 340 | LPS + CNI: peptide phosphorylation, Kinase PKA/Ca2+, Substrate Trp-5-MO (Control 1164, LPS 23925): 1305 | LPS + CNI: peptide phosphorylation, Kinase PKA, Substrate GS (Control 1440, LPS 1020): 3450 | LPS + CNI: peptide phosphorylation, Kinase PKC, Substrate Lamin B1 (Control 2016, LPS 268): 1072 | LPS + CNI: peptide phosphorylation, Kinase PKC, Substrate MBP (Control 2376, LPS 198): 319 | LPS + CNI: peptide phosphorylation, Kinase PKC, Substrate ACC-a (Control 2750, LPS 10692): 861 | LPS + CNI: peptide phosphorylation, Kinase CKII, Substrate TOPII (Control 3836, LPS 320): 291 | LPS + CNI: peptide phosphorylation, Kinase Src, Substrate Annexin2 (Control 4438, LPS 8745): 287 | LPS + CNI: peptide phosphorylation, Kinase PKC, Substrate EIF4E (Control 4494, LPS 41272): 6699 | LPS + CNI: peptide phosphorylation, Kinase and Substrate not given (Control 4960, LPS 530): 254 | LPS + CNI: peptide phosphorylation, Kinase CKI, Substrate GS (Control 5616, LPS 13386): 300 | LPS + CNI: peptide phosphorylation, Kinase CaM-II, Substrate Vimentin (Control 6930, LPS 4147): 248 | LPS + CNI: peptide phosphorylation, Kinase Lck/Fyn, Substrate MHC-I (Control 7040, LPS 1370): 230 | LPS + CNI: peptide phosphorylation, Kinase not given, Substrate GS (Control 9758, LPS 17052): 24415 | LPS + CNI: peptide phosphorylation, Kinase p38, Substrate MAPKAP2 (Control 10168, LPS 21440): 1150 | LPS + CNI: peptide phosphorylation, Kinase PKC, Substrate c-Src (Control 10728, LPS 10416): 17000
